According to patent US20220289692A1, “NLRP3 INHIBITORS” (Inflazome Limited, priority 2019, published 2022):

biological target: T1, NLRP3 (Homo sapiens, UniProt Q96P20); assay: THP-1 cells pyroptosis assay (LPS priming, nigericin, resazurin read-out); type: cell-based; design: Seed THP-1 cells (25,000 cells/well) containing 1.0 μg/ml LPS in 40 μl of RPMI medium; host or cells: THP-1 cells, LPS-primed, nigericin-stimulated; settings: 1.0 μg/ml LPS, 3 hrs compound, nigericin 5 μM 1 hr
Protocol: THP-1 cells (ATCC #TIB-202) were grown in RPMI containing L-glutamine (Gibco #11835) supplemented with 1 mM sodium pyruvate (Sigma #S8636) and penicillin (100 units/ml)/streptomycin (0.1 mg/ml) (Sigma #P4333) in 10% Fetal Bovine Serum (FBS) (Sigma #F0804). The cells were routinely passaged and grown to confluency (˜10^6 cells/ml). On the day of the experiment, THP-1 cells were harvested and resuspended into RPMI medium (without FBS). The cells were then counted and viability (>90%) checked by Trypan blue (Sigma #T8154). Appropriate dilutions were made to give a concentration of 625,000 cells/ml. To this diluted cell solution was added LPS (Sigma #L4524) to give a […] Final Assay Concentration (FAC). 40 μl of the final preparation was aliquoted into each well of a 96-well plate. The plate thus prepared was used for compound screening. The following method step-by-step assay was followed for compound screening. • 1. Seed THP-1 cells (25,000 cells/well) containing 1.0 μg/ml LPS in 40 μl of RPMI medium (without FBS) in 96-well, black walled, clear bottom cell culture plates coated with poly-D-lysine (VWR #734-0317) • 2. Add 5 μl compound (8 points half-log dilution, with 10 μM top dose) or vehicle (DMSO 0.1% FAC) to the appropriate wells • 3. Incubate for 3 hrs at 37° C., 5% CO2 • 4. Add 5 μl nigericin (Sigma #N7143) (FAC 5 μM) to all wells • 5. Incubate for 1 hr at 37° C., 5% CO2 • 6. At the end of the incubation period, spin plates at 300×g for 3 mins and remove supernatant • 7. Then add 50 μl of resazurin (Sigma #R7017) (FAC 100 μM resazurin in RPMI medium without FBS) and incubate plates for a further 1-2 hrs at 37° C. and 5% CO2 • 8. Plates were read in an Envision reader at Ex 560 nm and Em 590 nm • 9. IC50 data is fitted to a non-linear regression equation (log inhibitor vs response-variable slope 4-parameters) The results of the pyroptosis assay are summarised in Table 1 below as THP IC50.

T1 sequence (Q96P20 whole entry): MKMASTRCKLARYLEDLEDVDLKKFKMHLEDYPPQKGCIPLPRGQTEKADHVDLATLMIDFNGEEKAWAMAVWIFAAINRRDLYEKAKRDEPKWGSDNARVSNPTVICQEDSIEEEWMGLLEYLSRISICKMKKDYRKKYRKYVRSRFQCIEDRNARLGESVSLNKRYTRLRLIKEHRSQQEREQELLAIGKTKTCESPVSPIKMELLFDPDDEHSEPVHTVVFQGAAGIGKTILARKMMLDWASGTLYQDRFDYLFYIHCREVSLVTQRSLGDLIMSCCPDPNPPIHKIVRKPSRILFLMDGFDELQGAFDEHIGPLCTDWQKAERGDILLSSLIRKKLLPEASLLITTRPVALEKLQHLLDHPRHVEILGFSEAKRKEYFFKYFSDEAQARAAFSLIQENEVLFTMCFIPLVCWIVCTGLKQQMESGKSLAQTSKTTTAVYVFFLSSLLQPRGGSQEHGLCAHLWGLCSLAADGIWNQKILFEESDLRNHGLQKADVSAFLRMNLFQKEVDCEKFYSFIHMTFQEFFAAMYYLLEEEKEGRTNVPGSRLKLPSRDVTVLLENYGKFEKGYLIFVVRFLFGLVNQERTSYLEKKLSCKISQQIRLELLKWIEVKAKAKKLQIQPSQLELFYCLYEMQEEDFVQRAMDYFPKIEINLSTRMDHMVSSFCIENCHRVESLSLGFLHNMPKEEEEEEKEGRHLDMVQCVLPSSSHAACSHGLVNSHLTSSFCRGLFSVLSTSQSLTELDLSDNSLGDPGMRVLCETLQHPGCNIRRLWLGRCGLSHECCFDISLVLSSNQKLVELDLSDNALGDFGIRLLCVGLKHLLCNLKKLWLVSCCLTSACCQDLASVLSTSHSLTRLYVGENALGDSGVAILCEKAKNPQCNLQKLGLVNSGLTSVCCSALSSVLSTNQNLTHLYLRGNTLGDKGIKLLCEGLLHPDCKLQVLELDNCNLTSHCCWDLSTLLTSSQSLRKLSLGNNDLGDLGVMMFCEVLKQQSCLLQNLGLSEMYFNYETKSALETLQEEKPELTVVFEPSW

Row | Compound | IC50
1 | CCOC(=O)c1nnc(Nc2c3c(cc4c2CCC4)CCC3)[nH]1 [Example 1, ethyl 5-((1,2,3,5,6,7-hexahydro-s-indacen-4-yl)amino)-4H-1,2,4-triazole-3-carboxylate] | ≤ 2 µM
2 | O=C(OCc1cccnc1)c1nnc(Nc2c3c(cc4c2CCC4)CCC3)[nH]1 [Example 2, pyridin-3-ylmethyl 5-((1,2,3,5,6,7-hexahydro-s-indacen-4-yl)amino)-4H-1,2,4-triazole-3-carboxylate] | ≤ 10 µM
3 | COC(=O)c1nnc(Nc2c(-c3ccnc(OC4CCN(C)CC4)c3)ccc3c2CCC3)[nH]1 [Example 3] | ≤ 10 µM
4 | O=C(OCc1ccccc1)c1nnc(Nc2c3c(cc4c2CCC4)CCC3)[nH]1 [Example 4] | ≤ 5 µM
5 | COC(=O)c1nnc(Nc2c3c(cc(C)c2-c2ccnc(OC)c2)CCC3)[nH]1 [Example 5] | ≤ 5 µM
6 | CC(C)OC(=O)c1nnc(Nc2c3c(cc4c2CCC4)CCC3)[nH]1 [Example 6] | ≤ 10 µM
7 | COC(=O)c1nnc(Nc2c3c(cc4c2CCC4)CCC3)[nH]1 [Example 7] | ≤ 2 µM
8 | CCOC(=O)c1nnc(Nc2c(-c3ccnc(OC)c3)ccc3c2CCC3)[nH]1 [Example 8] | ≤ 5 µM

biological target: T1, NLRP3; assay: Human whole blood IL-1β release assay (LPS, nigericin, AlphaLisa); type: cell-based; design: Plate out 80 μl of whole blood containing 1 μg/ml of LPS in 96-well, clear bottom cell culture plate; from tissue; host or cells: human whole blood from healthy donors, LPS-primed, nigericin-stimulated; settings: 1 μg/ml LPS, 3 hrs compound, nigericin 10 μM 1 hr, read-out: HWB IC50
Protocol: For systemic delivery, the ability to inhibit NLRP3 when the compounds are present within the bloodstream is of great importance. For this reason, the NLRP3 inhibitory activity of a number of compounds in human whole blood was investigated in accordance with the following protocol.
Human whole blood in Li-heparin tubes was obtained from healthy donors from a volunteer donor panel. • 1. Plate out 80 μl of whole blood containing 1 μg/ml of LPS in 96-well, clear bottom cell culture plate (Corning #3585) • 2. Add 10 μl compound (8 points half-log dilution with 10 μM top dose) or vehicle (DMSO 0.1% FAC) to the appropriate wells • 3. Incubate for 3 hrs at 37° C., 5% CO2 • 4. Add 10 μl nigericin (Sigma #N7143) (10 μM FAC) to all wells • 5. Incubate for 1 hr at 37° C., 5% CO2 • 6. At the end of the incubation period, spin plates at 300×g for 5 mins to pellet cells and remove 20 μl of supernatant and add to 96-well v-bottom plates for IL-1β analysis (note: these plates containing the supernatants can be stored at −80° C. to be analysed at a later date) • 7. IL-1β was measured according to the manufacturer protocol (Perkin Elmer-AlphaLisa IL-1 Kit AL220F-5000) • 8. IC50 data is fitted to a non-linear regression equation (log inhibitor vs response-variable slope 4-parameters)

Row | Compound | IC50
9 | CCOC(=O)c1nnc(Nc2c3c(cc4c2CCC4)CCC3)[nH]1 [Example 1, ethyl 5-((1,2,3,5,6,7-hexahydro-s-indacen-4-yl)amino)-4H-1,2,4-triazole-3-carboxylate] | ≤ 5 µM
